The source of these data is US20250382344A1, “Soluble GLP1/GIP/NPY2 Receptor Triple Agonists” (Boehringer Ingelheim International GmH, priority 2024, published 2025).

SMILES strings stand for the structures. Like-named read-outs stand apart in the source and are kept apart here. *1 amine or outer side, *2 acyl side, *3 side chain or, on linkers, in order; H or OH if unused. Where a SMILES comes first, the peptide text is derived from it. Side-chain parts run from the residue outwards. [ ]: non-standard residue; d: D form. The star is where a group is joined. C18 diacid = O=C(O)CCCCCCCCCCCCCCCCC(=O)*; γGlu = O=C(O)[C@H](CCC(=O)[*:2])N[*:1]; εLys = N[C@@H](CCCCN[*:1])C(=O)[*:2]; Aib = CC(C)(N)C(=O)O

In one data set the target is T1, hGLP1R (Homo sapiens, UniProt P43220).
T1 construct: expressed in transfected cells; host or cells: HEK-293 CRE-luciferase reporter cells
The data set is described as follows: hGLP1R CreLuc assay in 0.5% and 100% plasma (HEK-293 CRE-luciferase reporter cells). The conditions noted are these: 0.5% human plasma, HEK-293 reporter cells. Format: cell-based. The text has this:
CHO and HEK-293 recombinant cell lines express a luciferase reporter gene under control of the CAMP responsive element (CRE). As a second recombinant protein the GLP-1 and NPY2 receptors were expressed in the reporter gene HEK cells, and the GIP receptor was expressed in the reporter gene CHO cells, respectively. Stimulation of these recombinant cells with an agonist leads to an increase of intracellular CAMP levels. In the presence of CAMP, the transcription factor CRE binding protein (CREB) binds to the CRE and to the CREB binding protein (CBP), which leads to transcription of the luciferase reporter gene. Peptides upon serial-dilution in 100% DMSO were transferred into 384-well assay plates with 5 μl pre-dispensed assay buffer (1×HBSS, 20 mM HEPES, pH7.4 supplemented with 0.5% human plasma) using acoustic dispensing on a Labcyte ECHO. Cryo-preserved transgenic reporter gene cells were thawed in assay buffer. 20 μl (10.000 cells/well) were added to the plate with the peptides and incubated for 4 hours at 37° C. in a humidified incubator. Following incubation, assay plates are equilibrated to room temperature, followed by addition of 25 μl of Bright-Glo™ Luciferase reagent, incubation at room temperature for 10 minutes and analysis of luminescence (Envision Reader). […] EC50 values were calculated by non-linear regression using sigmoid concentration-response with variable slope.
The same assays were run in the presence of 100% plasma with no additional buffer constituents.

The nature of data set [1]: Solubility in 0.1 M phosphate buffer at pH 7. Type of data set: physicochemical. The conditions noted are these: 0.1 M phosphate buffer at pH 7, 10 mg/mL final peptide concentration, shaking 2 hours at room temperature, peptides as TFA-salts; measured sample pH 6.5-7.0.
The target of the next data set is T2, hGIPR (Homo sapiens, UniProt P48546).
T2 construct: expressed in transfected cells; host or cells: CHO CRE-luciferase reporter cells
T2 sequence (P48546 22-466): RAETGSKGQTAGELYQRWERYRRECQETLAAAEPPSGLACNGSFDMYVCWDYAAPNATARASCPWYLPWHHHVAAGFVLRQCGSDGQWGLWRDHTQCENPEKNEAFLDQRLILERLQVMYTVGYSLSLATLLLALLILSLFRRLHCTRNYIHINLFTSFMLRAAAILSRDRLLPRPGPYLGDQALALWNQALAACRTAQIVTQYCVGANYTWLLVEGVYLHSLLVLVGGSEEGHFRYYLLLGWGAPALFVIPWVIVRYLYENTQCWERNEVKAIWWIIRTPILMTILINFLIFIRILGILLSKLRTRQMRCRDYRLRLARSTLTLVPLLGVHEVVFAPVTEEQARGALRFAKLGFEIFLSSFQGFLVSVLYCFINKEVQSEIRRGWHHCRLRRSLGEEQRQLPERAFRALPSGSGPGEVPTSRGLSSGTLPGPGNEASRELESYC
The data set is described as follows: hGIPR CreLuc assay in 0.5% and 100% plasma (CHO CRE-luciferase reporter cells). Format: cell-based.

Setting [2] is: 0.5% human plasma, read-out: hGIPR 0.5% hP.

T1 sequence (P43220 24-463): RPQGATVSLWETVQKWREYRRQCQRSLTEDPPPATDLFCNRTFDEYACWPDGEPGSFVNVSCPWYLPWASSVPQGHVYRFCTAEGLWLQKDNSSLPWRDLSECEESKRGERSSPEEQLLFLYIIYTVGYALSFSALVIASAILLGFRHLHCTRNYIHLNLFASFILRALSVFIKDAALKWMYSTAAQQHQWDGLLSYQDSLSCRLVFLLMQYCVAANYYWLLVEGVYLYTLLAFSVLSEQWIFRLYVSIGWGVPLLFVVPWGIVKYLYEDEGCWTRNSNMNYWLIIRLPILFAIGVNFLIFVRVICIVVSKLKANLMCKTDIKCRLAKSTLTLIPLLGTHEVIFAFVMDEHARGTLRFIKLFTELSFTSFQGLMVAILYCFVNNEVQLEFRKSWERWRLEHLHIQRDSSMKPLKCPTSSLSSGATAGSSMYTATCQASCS

On to `CC[C@H](C)[C@H](NC(=O)[C@H](CC(C)C)NC(=O)[C@H](Cc1c[nH]cn1)NC(=O)[C@H](CCCNC(=N)N)NC(=O)[C@@H](NC(=O)[C@H](Cc1ccccc1)NC(=O)[C@H](C)NC(=O)C(C)(C)NC(=O)[C@H](CCC(N)=O)NC(=O)[C@H](C)NC(=O)[C@H](CCC(N)=O)NC(=O)[C@H](CCCCN)NC(=O)[C@H](CCC(=O)O)NC(=O)[C@H](CC(C)C)NC(=O)C(C)(C)NC(=O)[C@@H](NC(=O)[C@H](CO)NC(=O)[C@H](Cc1ccc(O)cc1)NC(=O)[C@H](CC(=O)O)NC(=O)[C@H](CO)NC(=O)[C@@H](NC(=O)[C@H](Cc1ccccc1)NC(=O)[C@H](CCC(=O)O)NC(=O)CNC(=O)[C@H](CCC(=O)O)NC(=O)C(C)(C)NC(=O)[C@@H](N)Cc1ccc(O)cc1)[C@@H](C)O)[C@@H](C)CC)C(C)C)C(=O)N[C@@H](CC(N)=O)C(=O)N[C@@H](CCCCNC(=O)[C@@H](N)CCCCNC(=O)CC[C@H](NC(=O)CC[C@H](NC(=O)CC[C@H](NC(=O)CC[C@H](NC(=O)CC[C@H](NC(=O)CC[C@H](NC(=O)CCCCCCCCCCCCCCCCC(=O)O)C(=O)O)C(=O)O)C(=O)O)C(=O)O)C(=O)O)C(=O)O)C(=O)NC(C)(C)C(=O)N[C@H](C(=O)N[C@@H](CCCNC(=N)N)C(=O)N[C@@H](CCC(N)=O)C(=O)N[C@@H](CCCNC(=N)N)C(=O)N[C@@H](Cc1ccc(O)cc1)C(N)=O)[C@@H](C)O` [Compound 54, Y-Aib-E-G-E-F-T-S-D-Y-S-I-Aib-L-E-K-Q-A-Q-Aib-A-F-V-R-H-L-I-N-K(1,3)-Aib-T-R-Q-R-Y-NH2.C18DA-gGlu-gGlu-gGlu-gGlu-gGlu-gGlu-eLys(1,2)], for which the EC50 on hGLP1R (read-out: hGLP1R 0.5% hP) is 3.4 nM. Moreover, the solubility at 2 h in data set [1] turned out to be 9600 µg/mL.

Consider `CC[C@H](C)[C@H](NC(=O)[C@H](CO)NC(=O)[C@H](CC(C)C)NC(=O)[C@H](CC(=O)O)NC(=O)[C@H](CO)NC(=O)[C@@H](NC(=O)[C@H](Cc1ccccc1)NC(=O)[C@@H](NC(=O)CNC(=O)[C@H](CCC(=O)O)NC(=O)C(C)(C)NC(=O)[C@@H](N)Cc1ccc(O)cc1)[C@@H](C)O)[C@@H](C)O)C(=O)NC(C)(C)C(=O)N[C@@H](CC(C)C)C(=O)N[C@@H](CCC(=O)O)C(=O)N[C@@H](CCCCN)C(=O)N[C@@H](CCC(N)=O)C(=O)N[C@@H](C)C(=O)N[C@@H](CCC(N)=O)C(=O)NC(C)(C)C(=O)N[C@@H](C)C(=O)N[C@@H](Cc1ccccc1)C(=O)N[C@H](C(=O)N[C@@H](CCCNC(=N)N)C(=O)N[C@@H](Cc1c[nH]cn1)C(=O)N[C@@H](CC(C)C)C(=O)N[C@@H](CC(C)C)C(=O)N[C@@H](CC(N)=O)C(=O)N[C@@H](CCCCNC(=O)[C@@H](N)CCCCNC(=O)CC[C@H](NC(=O)CC[C@H](NC(=O)CC[C@H](NC(=O)CC[C@H](NC(=O)CC[C@H](NC(=O)CC[C@H](NC(=O)CCCCCCCCCCCCCCCCCCC(=O)O)C(=O)O)C(=O)O)C(=O)O)C(=O)O)C(=O)O)C(=O)O)C(=O)NC(C)(C)C(=O)N[C@H](C(=O)N[C@@H](CCCNC(=N)N)C(=O)N[C@@H](CCC(N)=O)C(=O)N[C@@H](CCCNC(=N)N)C(=O)N[C@@H](Cc1ccc(O)cc1)C(N)=O)[C@@H](C)O)C(C)C` [Compound 115, Y-Aib-E-G-T-F-T-S-D-L-S-I-Aib-L-E-K-Q-A-Q-Aib-A-F-V-R-H-L-L-N-K(1,3)-Aib-T-R-Q-R-Y-NH2.C20DA-gGlu-gGlu-gGlu-gGlu-gGlu-gGlu-eLys(1,2)], for which, at hGLP1R (hGLP1R 0.5% hP (nM)), the EC50 turned out to be 7 nM. In addition, the solubility at 2 h in data set [1] was determined as 8200 µg/mL.

As for `CC[C@H](C)[C@H](NC(=O)[C@H](CC(C)C)NC(=O)[C@H](Cc1c[nH]cn1)NC(=O)[C@H](CCCNC(=N)N)NC(=O)[C@@H](NC(=O)[C@H](Cc1ccccc1)NC(=O)[C@H](C)NC(=O)C(C)(C)NC(=O)[C@H](CCC(N)=O)NC(=O)[C@H](C)NC(=O)[C@H](CCC(N)=O)NC(=O)[C@H](CCCNC(=N)N)NC(=O)[C@H](CC(=O)O)NC(=O)[C@H](CC(C)C)NC(=O)C(C)(C)NC(=O)[C@@H](NC(=O)[C@H](CO)NC(=O)[C@H](Cc1ccc(O)cc1)NC(=O)[C@H](CC(=O)O)NC(=O)[C@H](CO)NC(=O)[C@@H](NC(=O)[C@H](Cc1ccccc1)NC(=O)[C@@H](NC(=O)CNC(=O)[C@H](CCC(=O)O)NC(=O)C(C)(C)NC(=O)[C@@H](N)Cc1ccc(O)cc1)[C@@H](C)O)[C@@H](C)O)[C@@H](C)CC)C(C)C)C(=O)N[C@@H](CC(N)=O)C(=O)N[C@@H](CCCCNC(=O)[C@@H](N)CCCCNC(=O)CC[C@H](NC(=O)CC[C@H](NC(=O)CC[C@H](NC(=O)CC[C@H](NC(=O)CC[C@H](NC(=O)CC[C@H](NC(=O)CCCCCCCCCCCCCCCCC(=O)O)C(=O)O)C(=O)O)C(=O)O)C(=O)O)C(=O)O)C(=O)O)C(=O)NC(C)(C)C(=O)N[C@H](C(=O)N[C@@H](CCCNC(=N)N)C(=O)N[C@@H](CCC(N)=O)C(=O)N[C@@H](CCCNC(=N)N)C(=O)N[C@@H](Cc1ccc(O)cc1)C(N)=O)[C@@H](C)O` [Compound 147, Y-Aib-E-G-T-F-T-S-D-Y-S-I-Aib-L-D-R-Q-A-Q-Aib-A-F-V-R-H-L-I-N-K(1,3)-Aib-T-R-Q-R-Y-NH2.C18DA-gGlu-gGlu-gGlu-gGlu-gGlu-gGlu-eLys(1,2)] (H-Y[Aib]EGTFTSDYSI[Aib]LDRQAQ[Aib]AFVRHLINK([εLys-γGlu-γGlu-γGlu-γGlu-γGlu-γGlu-C18 diacid])[Aib]TRQRY-NH2), the EC50 stood at 0.3 nM on hGLP1R (read-out: hGLP1R 0.5% hP); 0.2 nM at hGIPR (setting [2]); 5 nM at hGIPR (100% human plasma, read-out: hGIPR 100% hP).

As to `CC[C@H](C)[C@H](NC(=O)[C@H](CO)NC(=O)[C@H](Cc1ccc(O)cc1)NC(=O)[C@H](CC(=O)O)NC(=O)[C@H](CO)NC(=O)[C@@H](NC(=O)[C@H](Cc1ccccc1)NC(=O)[C@@H](NC(=O)CNC(=O)[C@H](CCC(=O)O)NC(=O)C(C)(C)NC(=O)[C@@H](N)Cc1ccc(O)cc1)[C@@H](C)O)[C@@H](C)O)C(=O)NC(C)(C)C(=O)N[C@@H](CC(C)C)C(=O)N[C@@H](CC(=O)O)C(=O)N[C@@H](CCCCN)C(=O)N[C@@H](CCC(N)=O)C(=O)N[C@@H](C)C(=O)N[C@@H](CCC(N)=O)C(=O)NC(C)(C)C(=O)N[C@@H](C)C(=O)N[C@@H](Cc1ccccc1)C(=O)N[C@H](C(=O)N[C@@H](CCCNC(=N)N)C(=O)N[C@@H](Cc1c[nH]cn1)C(=O)N[C@@H](CC(C)C)C(=O)N[C@@H](CC(C)C)C(=O)N[C@@H](CC(N)=O)C(=O)N[C@@H](CCCCNC(=O)[C@@H](N)CCCCNC(=O)CC[C@H](NC(=O)CC[C@H](NC(=O)CC[C@H](NC(=O)CC[C@H](NC(=O)CC[C@H](NC(=O)CC[C@H](NC(=O)CCCCCCCCCCCCCCCCC(=O)O)C(=O)O)C(=O)O)C(=O)O)C(=O)O)C(=O)O)C(=O)O)C(=O)NC(C)(C)C(=O)N[C@H](C(=O)N[C@@H](CCCNC(=N)N)C(=O)N[C@@H](CCC(N)=O)C(=O)N[C@@H](CCCNC(=N)N)C(=O)N[C@@H](Cc1ccc(O)cc1)C(N)=O)[C@@H](C)O)C(C)C` [Compound 173, Y-Aib-E-G-T-F-T-S-D-Y-S-I-Aib-L-D-K-Q-A-Q-Aib-A-F-V-R-H-L-L-N-K(1,3)-Aib-T-R-Q-R-Y-NH2.C18DA-gGlu-gGlu-gGlu-gGlu-gGlu-gGlu-eLys(1,2)], the results for the EC50 at hGLP1R (read-out: hGLP1R 0.5% hP) and at hGIPR (setting [2]) were 0.2 nM and 0.7 nM, respectively.

What is called solubility is how much of the substance goes into solution per volume.
